Source: US9961899B2, “Nematicidal aqueous suspension concentrate compositions” (Monsanto Technology LLC, priority 2012, dated 2018)

What was measured:
Assay type in all cases: physicochemical
[1] = Estimation of polymorph transition temperature from DSC data; settings: calculated from DSC thermal data
Procedure: Polymorphic Forms I and II of 3-phenyl-5-(thiophen-2-yl)-1,2,4-oxadiazole, as well as a 50/50 mixture thereof, were analyzed by DSC at a slow heating rate of 2° C. per minute, with similar sample sizes. […] Form II has a higher melting temperature and a lower enthalpy of fusion. […] FIGS. 9A through 9C show the relevant DSC thermograms for Form I, Form II, and a mixture of Forms I and II, respectively.
The thermal data using the procedure set forth above was used to calculate an approximate value for the transition temperature of conversion of Forms I and II, resulting in an estimated transition temperature value of 102° C.

[2] = Grinding analysis of polymorphs (ball mill, XRD); settings: ball mill 2 minutes at 4800 oscillations per minute
Procedure: Batches of 3-phenyl-5-(thiophen-2-yl)-1,2,4-oxadiazole polymorphic Forms I and II were ground using a CRESCENT WIG-L-BUG ball mill for 2 minutes at 4800 oscillations per minute (3.2 m/s) in two separate experiments. […] The Form II used in this experiment was obtained by recrystallization from the melt of Form I, as described in Example 14, above, […]

[3] = Mechanical pressure analysis of polymorphs (CARVER press, XRD); settings: approximately 15,000 psi for approximately 20 seconds
Procedure: Batches of 3-phenyl-5-(thiophen-2-yl)-1,2,4-oxadiazole polymorphic Forms I and II were placed in a CARVER press and compressed at approximately 15,000 psi for approximately 20 seconds in two separate experiments. XRD analysis was performed on the samples. The resulting XRD pattern matched the starting material in both experiments, as shown in FIGS. 5A and 5B for Forms I and II, respectively. […] The Form II used in this experiment was obtained by recrystallization from the melt of Form I, as described in Example 14, above.

[4] = Storage stability of polymorphs (humidity chambers / ambient, XRD)
Source text: To determine the storage stability and/or hydrate formation of 3-phenyl-5-(thiophen-2-yl)-1,2,4-oxadiazole Form I material during storage at ambient conditions, samples were monitored in two static humidity chambers. […] Solutions of saturated potassium chloride (84% RH) and sodium chloride (75% RH) salts at ambient temperature were used.

| transition temperature between Forms I and II [1] | polymorphic transformation on grinding (XRD) [2] | storage stability (XRD) ([4]; scintillation vial, ambient conditions, approximately 6 days) | Structure (SMILES) | polymorphic change under mechanical pressure (XRD) [3] | storage stability / hydrate formation (XRD) ([4]; 75 and 84% RH, ambient temperature, 4 weeks) |
| --- | --- | --- | --- | --- | --- |
| approximately 102 °C |  |  | c1ccc(-c2noc(-c3cccs3)n2)cc1 [Ia-i, 3-phenyl-5-(thiophen-2-yl)-1,2,4-oxadiazole] |  |  |
|  | transformed to Form I | showed signs of transformation to Form I | c1ccc(-c2noc(-c3cccs3)n2)cc1 [Form II, 3-phenyl-5-(thiophen-2-yl)-1,2,4-oxadiazole] | did not reveal any changes in the polymorphic form |  |
|  | no transformation was observed |  | c1ccc(-c2noc(-c3cccs3)n2)cc1 [Form I, 3-phenyl-5-(thiophen-2-yl)-1,2,4-oxadiazole] | did not reveal any changes in the polymorphic form | does not form a hydrate and appears to be thermodynamically stable over time |
